For data set [1], the target named is T1, γ-secretase (Homo sapiens, UniProt P49768). The data set is described as follows: Substrate specificity: β-Alcα secretion by HEK293 cells transfected with FLAG Alcα C150, anti-FLAG immunoprecipitation/western blot. The data set is classed as cell-based. To be noted: for (ii) β-Alcα secretion rate of HEK293 cells: 24 h, FLAG Alcα C150, negative control = 100%. On the procedure:
(§1) Of families constituting human Alcadein (hereinafter, referred to as Alc) known as a substrate for γ-secretase to colocalize with APP in brain neurons, an artificial Alcα fragment (hereinafter, referred to as Alcα C150) whose first extracellular cleavage site and γ-secretase cleavage site were determined was used to study the substrate specificity of the γ-secretase inhibitor of the present invention. β-Alcα produced from a first cleavage construct of Alcα cannot be quantified by sELISA used in Aβ measurement. Therefore, proteins with an attached FLAG tag at the N termini of first cleavage constructs of Alcα and of C99 were expressed by cells. FLAG-Aβ-like peptides secreted into a medium were collected by immunoprecipitation using anti-FLAG antibodies and detected by western blotting using the antibodies. A specific method thereof is shown below.
(§2) HEK293 cells (ATCC) (1×10^7 cells/10 cm dish) cultured in 6 ml of 10% FCS-containing DMEM (Wako Pure Chemical Industries, Ltd.) were transfected with FLAG APP C99 pcDNA3.1 (the nucleotide sequence of its coding region is shown in SEQ ID NO: 2) (J. Biol. Chem., 2003, 278, 49448-49458 (which was prepared from pcDNA3-APPC99)) or with FLAG Alcα C150 pcDNA3.1 (the nucleotide sequence of its coding region is shown in SEQ ID NO: 3) (J. Biol. Chem., 2004, 279, 24343-24354 (which was the same as pcDNA3AlcαΔE)) using Lipofectamine 2000 (Invitrogen Corp.) according to the protocol included in the reagent. Each inhibitor and a positive control (γ-Secretase Inhibitor IX (DAPT)) (Calbiochem Contact Information) were separately added at a concentration of 0.2 or 2 μmol/L. The same dose of DMSO (Wako Pure Chemical Industries, Ltd.) thereas was added as a negative control. 24 hours later, the culture supernatants were collected, and samples were preliminarily purified using beads (100 μL of 50% (v/v) Protein-G Sepharose (GE Healthcare)). Then, 15 μL of 50% (v/v) anti-FLAG antibody M2 beads (Sigma-Aldrich Corp.) were added thereto, and the samples were incubated at 4° C. for 1 hour. The beads were collected by centrifugation and washed three times with a buffer (10 mM Tris-HCl [pH 8.0], 140 mM NaCl, 0.1% n-octyl glucoside, 0.025% sodium azide), and Aβ and β-Alcα in the medium were collected. The proteins were subjected to SDS-PAGE using a 15% Tris-Tricine gel (Anal Biochem., 1987, 166 (2), 368-379) and then transferred to a membrane. The membrane was boiled for 5 minutes in PBS. Then, anti-FLAG M2 antibodies (5 μg/ml) (Sigma-Aldrich Corp.) were added thereto, and the membrane was incubated, followed by detection using a western blotting detection reagent ECL (GE Healthcare). This signal was quantified using Versa-doc system (Bio-Rad Laboratories, Inc.) to calculate protein secretion rates (the protein secretion rate of the negative control is defined as 100%).

Data set [2] has as its target T1, γ-secretase. Put plainly: Substrate specificity: FLAG-Aβ secretion by HEK293 cells transfected with FLAG APP C99, anti-FLAG immunoprecipitation/western blot. The data set is classed as cell-based. To be noted: for (i) Aβ secretion rate of HEK293 cells: 24 h, FLAG APP C99, negative control = 100%. On the procedure: as §1, §2
On the technique in general: A western blot detects proteins with antibodies after separation by electrophoresis.

The next data set has as its system C99 cells. The data set is described as follows: Cytotoxicity on C99 cells, cell viability by Cell Counting Kit-8. The data set is classed as cell-based, human. The conditions noted are these: 24 h. Here is the method:
The cytotoxicity of four test substances (TLVM-5, TLVM-7, TLVM-8, and TLVM-9) on the C99 cells was measured using a method shown below.
(§3) In the present test, a medium used for the C99 cells was 500 mL of a Dulbecco's Modified Eagle's Medium (DMEM, Sigma-Aldrich Corp.) supplemented with 55 ml of fetal bovine serum (Biosource), 5.5 ml of MEM non-essential amino acids (Gibco), and 5.5 ml of penicillin/streptomycin (Gibco).
The C99 cells were suspended at a concentration of 0.75×10^5 cells/ml in the medium. The suspension was added at a concentration of 100 μL (0.75×10^4 cells)/well to a 96-well collagen plate (Akita Sumitomo Bakelite Co., Ltd.) and cultured for 2 days. Then, the medium (corresponding to 50 μL/well) in the wells was removed, and a fresh medium was added thereto at a concentration of 30 μL/well. […] Then, the cell viability was measured using Cell Counting Kit-8 (Dojindo Laboratories).
(Formazan colour is commonly taken as a measure of viable cells.)

Data set [3] addresses T1, γ-secretase. The data set is described as follows: Aβ secretion by C99 cells (HEK293 stably expressing APP-C99), γ-secretase inhibitory effect, Aβ ELISA of culture supernatant. To be noted: for IC50: interpolated from the two concentrations that bracket 50%. Type of data set: cell-based.
Source text: HEK293 cells (ATCC) were transfected with APP C99 pcDNA3.1 (the nucleotide sequence of its coding region is shown in SEQ ID NO: 1) (J. Biol. Chem., 2003, 278, 49448-49458). Cell strains (C99 cells) confirmed to stably express APP-C99 (artificial APP fragment that originally lacked a polypeptide portion to be cleaved by α- or β-secretase at the first stage in the two-stage reaction of Aβ production from APP) were used to study the γ-secretase inhibitory effects of four test substances (TLVM-5, TLVM-7, TLVM-8, and TLVM-9) in vitro.
as §3
The C99 cells were suspended at a concentration of 5×10^4 cells/ml in the medium. The suspension was added at a concentration of 1 ml (5×10^4 cells)/well to a 24-well collagen plate (Akita Sumitomo Bakelite Co., Ltd.) and cultured for 3 days. Then, the medium in the wells was removed, and the wells were washed with a medium (1 ml/well). The medium was removed, and a fresh medium was then added thereto at a concentration of 0.4 ml/well. The cells were exposed to the test substances and positive controls and incubated for 24 hours, and the culture supernatants were collected. The positive controls used were L-685,458 (CALBIOCHEM) and Boc-Leu-Val-Met-Leu-OMe (hereinafter, referred to as LVML-1) disclosed in Example 1 of Patent Document 1 (WO03/091278). The exposure concentrations were set to four concentrations, 0.3, 1, 3, and 10 μmol/L, for all the test substances and the positive controls. The concentrations of Aβ (1-40) and Aβ (1-42) in the culture supernatants were measured using Human Amyloid β (1-40) (N) Assay Kit (L)-IBL and Human Amyloid β (1-42) (N) Assay Kit (L)-IBL (Immuno-Biological Laboratories, Co., Ltd.). The amounts of Aβ (1-40) and Aβ (1-42) secreted were calculated by subtracting the concentrations of Aβ (1-40) and Aβ (1-42) originally contained in the medium before the C99 cell inoculation, from the measured concentrations thereof, respectively. Moreover, when the Aβ secretion rate of a negative control (5% DMSO-containing medium, resulting in 1% DMSO at the final concentration) is defined as 100%, Aβ secretion rates at each concentration of the test substances and the positive controls were calculated.
The TLVM-5, TLVM-7, TLVM-8, and TLVM-9 confirmed in Example 8 to have strong inhibitory activities against γ-secretase activities were subjected to an additional experiment at low concentrations (exposure concentrations were set to three concentrations, […], for the test substances and to four concentrations, 0.1, 0.3, 1, and 3 μmol/L, for the positive control).
Moreover, Aβ secretion rates at two concentrations of the test substance that bracket the concentration at which Aβ secretion was inhibited by 50% (IC50) were used to calculate IC50 according to the following equation: IC50:10^[LOG(A/B)*(50−C)/(D−C)+LOG(B)],wherein
A: of the two points that bracket 50% inhibition, the higher concentration of the test substance,
B: of the two points that bracket 50% inhibition, the lower concentration of the test substance,
C: secretion rate (%) at the concentration B, and
D: secretion rate (%) at the concentration A.

Where [4] appears, read: Example 8, exposure 0.3 μmol/L, 24 h.
Setting [5] is: Example 8, exposure 0.3 μmol/L, 24 h, negative control = 100%.
The mark [6] stands for this setting: Example 8, exposure 1 μmol/L, 24 h.
The mark [7] stands for this setting: Example 8, exposure 3 μmol/L, 24 h.
The mark [8] stands for this setting: Example 8, exposure 10 μmol/L, 24 h.

Where two headings read alike, the source gives them in different places. *: point of attachment. Boc = CC(C)(C)OC(=O)*

For the molecule `C[C@H](NC(=O)Cc1cc(F)cc(F)c1)C(=O)N[C@H](C(=O)OC(C)(C)C)c1ccccc1` [DAPT, reference compound], the “(ii) β-Alcα secretion rate of HEK293 cells” value on γ-secretase [1] (0.2 μmol/L) was 23%; at γ-secretase [1] (2 μmol/L), 16%. Also, the “(i)/(ii) ratio, Aβ / β-Alcα secretion rates” value is 0.35 on γ-secretase [2] (0.2 μmol/L) and 1.26 on γ-secretase [2] (2 μmol/L). Further, the “(i) Aβ secretion rate of HEK293 cells” value on γ-secretase [2] (0.2 μmol/L) worked out at 8%; on γ-secretase [2] (2 μmol/L), 20%.

Broadly, the IC50 is the midpoint of a concentration-inhibition curve. `CC(C)C[C@H](NC(=O)[C@H](Cc1ccccc1)C[C@@H](O)[C@H](Cc1ccccc1)NC(=O)OC(C)(C)C)C(=O)N[C@@H](Cc1ccccc1)C(N)=O` [L-685, 458, reference compound]: the “Cell viability of C99 cells” value with C99 cells (exposure 0.3 μmol/L) came to 133%; with C99 cells (exposure 1 μmol/L), 125%; in the data set on C99 cells (exposure 3 μmol/L), 110%; with C99 cells (exposure 10 μmol/L), 99%. Besides, the “Aβ (1-42) secretion rate of C99 cells” value is 96% at γ-secretase [3] (setting [4]); 70% on γ-secretase [3] (setting [6]); 49% on γ-secretase [3] (setting [7]); 24% at γ-secretase [3] (setting [8]); 97% on γ-secretase [3] (Example 9, exposure 0.1 μmol/L); 91% at γ-secretase [3] (Example 9, exposure 0.3 μmol/L). The “Aβ (1-42) secretion rate of C99 cells” value was 87% on γ-secretase [3] (Example 9, exposure 1 μmol/L) and 8% at γ-secretase [3] (Example 9, exposure 3 μmol/L). For the same molecule, the “Aβ [(1-40) + (1-42)] secretion rate of C99 cells” value at γ-secretase [3] (setting [4]) turned out to be 101%; at γ-secretase [3] (setting [6]), 68%; at γ-secretase [3] (setting [7]), 39%; at γ-secretase [3] (setting [8]), 9%; on γ-secretase [3] (Example 9, exposure 0.1 μmol/L) it was 113%; on γ-secretase [3] (Example 9, exposure 0.3 μmol/L) it was 90%. The “Aβ [(1-40) + (1-42)] secretion rate of C99 cells” value on γ-secretase [3] (Example 9, exposure 1 μmol/L) is on record as 73%; on γ-secretase [3] (Example 9, exposure 3 μmol/L), 31%. For the same molecule, the “Aβ (1-40) secretion rate of C99 cells” value on γ-secretase [3] (setting [5]) is recorded as 101%; at γ-secretase [3] (setting [6]), 68%; at γ-secretase [3] (setting [7]), 38%; at γ-secretase [3] (setting [8]), 9%; on γ-secretase [3] (Example 9, exposure 0.1 μmol/L) it was 114%; at γ-secretase [3] (Example 9, exposure 0.3 μmol/L), 90%. Also, the “Aβ (1-40) secretion rate of C99 cells” value at γ-secretase [3] (Example 9, exposure 1 μmol/L) is 72%; at γ-secretase [3] (Example 9, exposure 3 μmol/L), 32%. In addition, the IC50 at γ-secretase [3] (Example 9, read-out: IC50, Aβ (1-40) secretion of C99 cells) turned out to be 1800 nM; at γ-secretase [3] (Example 9, read-out: IC50, Aβ (1-42) secretion of C99 cells) it was 1700 nM.

Consider `CSCC[C@H](NC(=O)[C@H](C)NC(=O)[C@H](CC(C)C)C[C@@H](O)[C@@H](NC(=O)OC(C)(C)C)[C@@H](C)O)C(=O)NCc1ccccc1` [TLVM-10, [5S-(tert-butoxycarbonylamino)-4R,6R-dihydroxy-2R-(2-methylpropyl)heptanoyl]-L-alanyl-L-methionine benzylamide], for which, on γ-secretase [1] (2 μmol/L), the “γ cleavage of the Alcα-C150, in words” value is “did not inhibit” and the “(ii) β-Alcα secretion rate of HEK293 cells” value is recorded as 94%. For the same molecule, on γ-secretase [2] (2 μmol/L), the “(i)/(ii) ratio, Aβ / β-Alcα secretion rates” value came out at 0.39; the “cleavage of APP-C99, in words” value is “specifically inhibited”; the “(i) Aβ secretion rate of HEK293 cells” value is recorded as 37%.

Take “Boc-Leu-Val-Met-Leu-OMe (Boc-LVML-OMe; SMILES COC(=O)[C@H](CC(C)C)NC(=O)[C@H](CCSC)NC(=O)[C@@H](NC(=O)[C@H](CC(C)C)NC(=O)OC(C)(C)C)C(C)C) [LVML-1, reference compound]”: the “Aβ (1-42) secretion rate of C99 cells” value in the data set with γ-secretase [3] (setting [4]) is on record as 95%; in the data set with γ-secretase [3] (setting [6]), 78%; with γ-secretase [3] (setting [7]), 104%; in the data set with γ-secretase [3] (setting [8]), 61%. The “Aβ [(1-40) + (1-42)] secretion rate of C99 cells” value amounted to 138% with γ-secretase [3] (setting [4]), 110% with γ-secretase [3] (setting [6]), 105% in the data set with γ-secretase [3] (setting [7]) and 82% in the data set with γ-secretase [3] (setting [8]). Also, the “Aβ (1-40) secretion rate of C99 cells” value with γ-secretase [3] (setting [5]) is recorded as 140%; in the data set with γ-secretase [3] (setting [6]) it was 112%; with γ-secretase [3] (setting [7]), 106%; with γ-secretase [3] (setting [8]), 83%.

For the origin of these results see patent publication US8501813B2, “γ-secretase inhibitor” (Kabushiki Kaisha Yakult Honsha, priority 2007, dated 2013).
